Patent US20240158446A1, “CYCLIC COMPOUND HAVING SELECTIVE INHIBITORY ACTION ON KRAS OVER HRAS AND NRAS” (CHUGAI SEIYAKU KABUSHIKI KAISHA, priority 2021, published 2024)
pKd: −log10 of the molar value. Like-named read-outs stand apart in the source and are kept apart here. Where a SMILES comes first, the peptide text is derived from it. Bridges are numbered along the chain shown (N, C = ends). [ ]: non-standard residue; d: D form. The star is where a group is joined. hPhe(3,5-F2-4-CF3) = N[C@@H](CCc1cc(F)c(C(F)(F)F)c(F)c1)C(=O)O; hPhe(3-Cl-4-CF3) = N[C@@H](CCc1ccc(C(F)(F)F)c(Cl)c1)C(=O)O; NPrPhe(4-CF3) = CCCN[C@@H](Cc1ccc(C(F)(F)F)cc1)C(=O)O; NMeGly(cPent) = CN[C@H](C(=O)O)C1CCCC1; Pro(4,4-F2) = O=C(O)[C@@H]1CC(F)(F)CN1; αMeI = CC[C@H](C)[C@](C)(N)C(=O)O; NMeD = CN[C@@H](CC(=O)O)C(=O)O; NMeL = CN[C@@H](CC(C)C)C(=O)O; NMeA = CN[C@@H](C)C(=O)O; Ac5c = NC1(C(=O)O)CCCC1; Aze = O=C(O)[C@@H]1CCN1; Ac4c = NC1(C(=O)O)CCC1; X24 = CC1(C)CCN(*)C1; NEtG = CCNCC(=O)O; Sar = CNCC(=O)O

Assays:
[1] = biological target: GDP-bound KRAS wild-type protein (Homo sapiens, UniProt P01116); experiment: Binding to KRAS by surface plasmon resonance (SPR), Single Cycle Kinetics; settings: GDP-bound KRAS wild-type protein, read-out: KRAS KD
[2] = biological target: GDP-bound NRAS wild-type protein (Homo sapiens, UniProt P01111); experiment: Binding to NRAS by surface plasmon resonance (SPR), Single Cycle Kinetics; settings: for NRAS/KRAS (ratio of KD value for NRAS to KD value for KRAS) / NRAS/KRAS (ratio of KD value with respect to NRAS to KD value with respect to KRAS): SPR, GDP-bound NRAS wild-type protein vs GDP-bound KRAS wild-type protein
[3] = biological target: GDP-bound HRAS wild-type protein (Homo sapiens, UniProt P01112); experiment: Binding to HRAS by surface plasmon resonance (SPR), Single Cycle Kinetics; settings: for HRAS/KRAS (ratio of KD value for HRAS to KD value for KRAS) / HRAS/KRAS (ratio of KD value with respect to HRAS to KD value with respect to KRAS): SPR, GDP-bound HRAS wild-type protein vs GDP-bound KRAS wild-type protein
[4] = SPR Single Cycle Kinetics, 1:1 binding model

Chain of GDP-bound NRAS wild-type protein (P01111 whole entry): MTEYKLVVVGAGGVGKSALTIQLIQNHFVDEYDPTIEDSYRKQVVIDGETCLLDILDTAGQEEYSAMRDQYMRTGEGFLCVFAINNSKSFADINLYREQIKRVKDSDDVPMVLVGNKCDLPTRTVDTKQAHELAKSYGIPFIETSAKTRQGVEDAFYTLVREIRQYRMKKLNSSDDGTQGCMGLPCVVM
Chain of GDP-bound HRAS wild-type protein (P01112 whole entry): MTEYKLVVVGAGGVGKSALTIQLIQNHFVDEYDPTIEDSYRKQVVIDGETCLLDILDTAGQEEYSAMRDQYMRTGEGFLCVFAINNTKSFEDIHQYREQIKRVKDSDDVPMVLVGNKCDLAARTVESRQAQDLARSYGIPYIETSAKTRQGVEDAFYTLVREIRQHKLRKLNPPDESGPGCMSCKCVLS
Chain of GDP-bound KRAS wild-type protein (P01116 whole entry): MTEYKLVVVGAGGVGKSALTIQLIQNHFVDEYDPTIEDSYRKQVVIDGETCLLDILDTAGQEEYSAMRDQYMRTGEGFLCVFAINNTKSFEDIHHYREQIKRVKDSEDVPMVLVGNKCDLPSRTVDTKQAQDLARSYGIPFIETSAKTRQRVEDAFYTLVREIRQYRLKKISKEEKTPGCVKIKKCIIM

Row | SMILES | pKd ([1]; SPR, Single Cycle Kinetics) | pKd [1, 4] | NRAS/KRAS (ratio of KD value for NRAS to KD value for KRAS) [2] | HRAS/KRAS (ratio of KD value for HRAS to KD value for KRAS) [3] | NRAS/KRAS (ratio of KD value with respect to NRAS to KD value with respect to KRAS) [2] | HRAS/KRAS (ratio of KD value with respect to HRAS to KD value with respect to KRAS) [3] | also measured
1 | CCCN1C(=O)[C@@H]2CCN2C(=O)[C@H](C)N(C)C(=O)[C@H]([C@@H](C)CC)NC(=O)[C@H](CC(C)C)N(C)C(=O)C[C@@H](C(=O)N2CCC(C)(C)C2)N(C)C(=O)[C@H](C2CCCC2)N(C)C(=O)C2(CCCC2)NC(=O)[C@@H]2CCCN2C(=O)[C@H](CCc2ccc(C(F)(F)F)c(Cl)c2)NC(=O)CN(C)C(=O)[C@@H]1Cc1ccc(C(F)(F)F)cc1 [PP0186] ([NMeL]I[NMeA][Aze][NPrPhe(4-CF3)][Sar][hPhe(3-Cl-4-CF3)]P[Ac5c][NMeGly(cPent)][NMeD]-X24; lactam N-11) | – | 8.77 | C (A compound having a KD ratio of 0.1 or more and less than 3 is denoted as C) | B (a compound having 3 or more and less than 10 is denoted as B) | – | – | –
2 | CCCN1C(=O)CN(C)C(=O)CN(CC)C(=O)[C@H]([C@@H](C)CC)NC(=O)[C@H](CC(C)C)N(C)C(=O)C[C@@H](C(=O)N(C)C)N(C)C(=O)[C@H](C2CCCC2)N(C)C(=O)C2(CCC2)NC(=O)[C@@H]2CC(F)(F)CN2C(=O)[C@H](CCc2ccc(C(F)(F)F)c(Cl)c2)NC(=O)CN(C)C(=O)[C@@H]1Cc1ccc(C(F)(F)F)cc1 [PP0426] ([NMeL]I[NEtG][Sar][NPrPhe(4-CF3)][Sar][hPhe(3-Cl-4-CF3)][Pro(4,4-F2)][Ac4c][NMeGly(cPent)][NMeD]-NMe2; lactam N-11) | – | 9.92 | – | – | C (A compound having a KD ratio of 0.1 or more and less than 3 is denoted as C) | C (A compound having a KD ratio of 0.1 or more and less than 3 is denoted as C) | –
3 | CCC[C@H]1C(=O)N[C@@H]([C@@H](C)CC)C(=O)N(C)CC(=O)N(C)[C@H]2C/C=C\CCN(C2=O)[C@@H](Cc2ccc(C(F)(F)F)cc2)C(=O)N(C)CC(=O)N[C@@H](CCc2ccc(C(F)(F)F)c(OC)c2)C(=O)N2C[C@H](OCC)C[C@H]2C(=O)NC2(CC(C)(C)C2)C(=O)N(C)[C@@H](C2CCCC2)C(=O)N(C)[C@H](C(=O)N(C)C)CC(=O)N1C [PP1560] | – | – | – | – | – | – | pKd ([1]; SPR, Single Cycle Kinetics, 1:1 binding model): 10.16; NRAS/KRAS (ratio of KD value for NRAS to KD value for KRAS) ([2]; KD ratio class): A (a compound having 10 or more and less than 20 is denoted as A); HRAS/KRAS (ratio of KD value for HRAS to KD value for KRAS) ([3]; KD ratio class): B (a compound having 3 or more and less than 10 is denoted as B)
4 | CCO[C@@H]1C[C@H]2C(=O)NC3(CCC3)C(=O)N(C)[C@@H](C3CCCC3)C(=O)N(C)[C@H](C(=O)N3CCOCC3)CC(=O)N(C)[C@@H](COC)C(=O)N[C@@H]([C@@H](C)CC)C(=O)N(C)CC(=O)N(C)[C@H]3CCCCCN(C3=O)[C@@H](Cc3ccc(C(F)(F)F)cc3)C(=O)N(C)CC(=O)N[C@@H](CCc3cc(F)c(C(F)(F)F)c(F)c3)C(=O)N2C1 [PP0689] | – | 9.52 | – | – | B (a compound having 3 or more and less than 10 is denoted as B) | B (a compound having 3 or more and less than 10 is denoted as B) | –
5 | CC[C@H](C)[C@@H]1NC(=O)[C@H](CC(C)C)N(C)C(=O)C[C@@H](C(=O)N2CCOCC2)N(C)C(=O)[C@H](C2CCCC2)N(C)C(=O)C(C)(C)NC(=O)[C@@H]2CCCN2C(=O)[C@H](CCc2cc(F)c(C(F)(F)F)c(F)c2)NC(=O)CN(C)C(=O)[C@H](Cc2ccc(C(F)(F)F)cc2)N2CCCC[C@@H](C2=O)N(C)C(=O)CN(C)C1=O [PP0565] | – | 9.80 | – | – | C (A compound having a KD ratio of 0.1 or more and less than 3 is denoted as C) | B (a compound having 3 or more and less than 10 is denoted as B) | –

The next lines start with results.

Row | pKd ([1]; SPR, Single Cycle Kinetics) | pKd [1, 4] | SMILES | NRAS/KRAS (ratio of KD value for NRAS to KD value for KRAS) [2] | HRAS/KRAS (ratio of KD value for HRAS to KD value for KRAS) [3] | NRAS/KRAS (ratio of KD value with respect to NRAS to KD value with respect to KRAS) [2] | HRAS/KRAS (ratio of KD value with respect to HRAS to KD value with respect to KRAS) [3] | also measured
6 | 9.44 | – | CCC[C@@H]1C[C@H]2C(=O)NC3(CC(C)(C)C3)C(=O)N(C)[C@@H](C3CCCC3)C(=O)N(C)[C@H](C(=O)N(C)C)CC(=O)N(C)[C@@H](COC)C(=O)N[C@@H]([C@@H](C)CC)C(=O)N(C)CC(=O)N(C)[C@H]3C/C=C\CCN(C3=O)[C@@H](Cc3ccc(C(F)(F)F)cc3)C(=O)N(C)CC(=O)N[C@@H](CCc3ccc(C(F)(F)F)c(Cl)c3)C(=O)N2C1 [PP2275] | A (a compound having 10 or more and less than 20 is denoted as A) | A (a compound having 10 or more and less than 20 is denoted as A) | – | – | –
7 | – | 8.74 | CCCN1C(=O)CN(C)C(=O)CN(C)C(=O)[C@H]([C@@H](C)CC)NC(=O)[C@H](CC(C)C)N(C)C(=O)C[C@@H](C(=O)N(C)C)N(C)C(=O)[C@H](C2CCCC2)N(C)C(=O)[C@](C)([C@@H](C)CC)NC(=O)[C@@H]2CCCN2C(=O)[C@H](CCc2cc(F)c(C(F)(F)F)c(F)c2)NC(=O)CN(C)C(=O)[C@@H]1Cc1ccc(C(F)(F)F)cc1 [PP0736] ([NMeL]I[Sar][Sar][NPrPhe(4-CF3)][Sar][hPhe(3,5-F2-4-CF3)]P[αMeI][NMeGly(cPent)][NMeD]-NMe2; lactam N-11) | – | – | B (a compound having 3 or more and less than 10 is denoted as B) | C (A compound having a KD ratio of 0.1 or more and less than 3 is denoted as C) | –
8 | 9.70 | – | CCC[C@@H]1C[C@H]2C(=O)NC3(CC(C)(C)C3)C(=O)N(C)[C@@H](C3CCCC3)C(=O)N(C)[C@H](C(=O)N(C)C)CC(=O)N(C)[C@@H](CC)C(=O)N[C@@H]([C@@H](C)CC)C(=O)N(C)CC(=O)N(C)[C@H]3C/C=C\CCN(C3=O)[C@@H](Cc3ccc(C)cc3)C(=O)N(C)CC(=O)N[C@@H](CCc3cc(F)c(C(F)(F)F)c(F)c3)C(=O)N2C1 [PP2208] | A (a compound having 10 or more and less than 20 is denoted as A) | A (a compound having 10 or more and less than 20 is denoted as A) | – | – | –
9 | – | 9.96 | CCCOC[C@H]1C(=O)N[C@@H]([C@@H](C)CC)C(=O)N(C)CC(=O)N(C)[C@H]2C/C=C\CCN(C2=O)[C@@H](Cc2ccc(C(F)(F)F)cc2)C(=O)N(C)CC(=O)N[C@@H](CCc2ccc(C(F)(F)F)c(Cl)c2)C(=O)N2C[C@H](OCC)C[C@H]2C(=O)NC2(CCC2)C(=O)N(C)[C@@H](C2CCCC2)C(=O)N(C)[C@H](C(=O)N(C)CCC)CC(=O)N1C [PP2831] | – | – | – | – | NRAS/KRAS (ratio of KD value with respect to GDP-bound NRAS wild-type protein to KD value with respect to KRAS) ([2]; SPR KD ratio NRAS/KRAS, class symbols): A (a compound having 10 or more and less than 20 is denoted as A); HRAS/KRAS (ratio of KD value with respect to GDP-bound HRAS wild-type protein to KD value with respect to KRAS) ([3]; SPR KD ratio HRAS/KRAS, class symbols): A (a compound having 10 or more and less than 20 is denoted as A)
10 | 9.57 | – | CCO[C@@H]1C[C@H]2C(=O)NC3(CCC3)C(=O)N(C)[C@@H](C3CCCC3)C(=O)N(C)[C@H](C(=O)N(C)C)CC(=O)N(C)[C@@H](CC)C(=O)N[C@@H]([C@@H](C)CC)C(=O)N(C)CC(=O)N(C)[C@H]3CCCCN(C3=O)[C@@H](Cc3ccc(C(F)(F)F)cc3)C(=O)N(C)CC(=O)N[C@@H](CCc3ccc(OC(F)F)c(F)c3)C(=O)N2C1 [PP0986] | C (A compound having a KD ratio of 0.1 or more and less than 3 is denoted as C) | C (A compound having a KD ratio of 0.1 or more and less than 3 is denoted as C) | – | – | –
